Measured values taken from ChEMBL document CHEMBL1149805, “Antibacterial activity of a novel series of 3-bromo-4-(1H-3-indolyl)-2,5-dihydro-1H-2,5-pyrroledione derivatives--an extended structure-activity relationship study” (Eur J Med Chem, 2008).
Values after ≈ are worked out from the molar mass of the structure shown. Active and inactive are the calls of the source. No rule for the calls is given here.

Tests used:
[1] = tested on: Escherichia coli; assay: Antibacterial activity against Escherichia coli after 24 hrs by broth microdilution method; format: functional, organism-based
[2] = Partition coefficient, log P of the compound; format: physicochemical; settings: octanol/water
[3] = tested on: Candida albicans; assay: Antibacterial activity against Candida albicans after 24 hrs by broth microdilution method; format: functional, organism-based
[4] = tested on: Mycolicibacterium smegmatis; assay: Antibacterial activity against Mycobacterium smegmatis SG987 after 24 hrs by broth microdilution method; format: functional; settings: for MIC: Mycolicibacterium smegmatis, SG987, 24 h
[5] = tested on: Staphylococcus aureus; assay: Antibacterial activity against Staphylococcus aureus 134/93 after 24 hrs by broth microdilution method; format: functional; settings: for MIC: Staphylococcus aureus, 134/93, 24 h

Structure (SMILES)	Activity [1]	logP [2]	Activity [3]	-logMIC [4]	MIC [4] [µM]	-logMIC [5]	MIC [5] [µM]
CCCc1cccc2c(C3=C(Br)C(=O)NC3=O)c(-c3ccc(OC)cc3)[nH]c12	inactive	3.58	inactive	4.8	14.2 (≈ 6.24 µg/mL)	6.3	0.5 (≈ 0.22 µg/mL)
Cc1ccc(NC(=O)CCCc2[nH]c3ccccc3c2C2=C(Br)C(=O)NC2=O)cc1	inactive	2.56	inactive	4.6	27 (≈ 12.6 µg/mL)	5.8	1.58 (≈ 0.737 µg/mL)
CCCCc1ccc2[nH]c(-c3ccccc3)c(C3=C(Br)C(=O)NC3=O)c2c1	inactive	3.74	inactive	5.7	1.9 (≈ 0.804 µg/mL)	6.6	0.24 (≈ 0.102 µg/mL)
CCCCc1ccc2[nH]c(-c3ccc(OC)cc3)c(C3=C(Br)C(=O)NC3=O)c2c1	inactive	3.83	inactive	5.5	3.4 (≈ 1.54 µg/mL)	6.4	0.44 (≈ 0.199 µg/mL)
CCCCc1ccc2[nH]c(-c3cccc(OC)c3)c(C3=C(Br)C(=O)NC3=O)c2c1	inactive	3.81	inactive	5.5	3.16 (≈ 1.43 µg/mL)	5.5	3.4 (≈ 1.54 µg/mL)
CCOc1ccc2[nH]c(-c3ccccc3)c(C3=C(Br)C(=O)NC3=O)c2c1	inactive	2.77	inactive	4.5	30.4 (≈ 12.5 µg/mL)	5.4	3.8 (≈ 1.56 µg/mL)
CCCCCCc1ccc2[nH]c(-c3cccc(OC)c3)c(C3=C(Br)C(=O)NC3=O)c2c1	inactive	4.26	inactive	5.2	6.31 (≈ 3.04 µg/mL)	4.6	26 (≈ 12.5 µg/mL)
COc1cccc(-c2[nH]c3ccc(C)cc3c2C2=C(Br)C(=O)NC2=O)c1	inactive	3.12	inactive	5.1	7.94 (≈ 3.27 µg/mL)	6.6	0.2 (≈ 0.0823 µg/mL)
CCCCCc1ccc2[nH]c(-c3ccc(OC)cc3)c(C3=C(Br)C(=O)NC3=O)c2c1	inactive	4.1	inactive	5.5	3.3 (≈ 1.54 µg/mL)	6.1	0.85 (≈ 0.397 µg/mL)
O=C(CCCCCc1[nH]c2ccccc2c1C1=C(Br)C(=O)NC1=O)Nc1ccccc1	inactive	2.68	inactive	4.6	26 (≈ 12.5 µg/mL)	7	0.1 (≈ 0.048 µg/mL)
Cc1ccccc1NC(=O)CCCc1[nH]c2ccccc2c1C1=C(Br)C(=O)NC1=O	inactive	2.56	inactive	4.8	17.1 (≈ 7.97 µg/mL)	6.5	0.32 (≈ 0.149 µg/mL)
CCCCc1cccc2c(C3=C(Br)C(=O)NC3=O)c(-c3ccccc3)[nH]c12	inactive	3.88	inactive	4.8	14.7 (≈ 6.22 µg/mL)	6.6	0.25 (≈ 0.106 µg/mL)
COc1ccc(-c2[nH]c3ccc(C)cc3c2C2=C(Br)C(=O)NC2=O)cc1	inactive	2.85	inactive	5.1	7.6 (≈ 3.13 µg/mL)	6.9	0.12 (≈ 0.0494 µg/mL)
CCCCCCCCOc1ccc(-c2[nH]c3ccccc3c2C2=C(Br)C(=O)NC2=O)cc1	inactive	5.21	inactive	4	100 (≈ 49.5 µg/mL)	4.3	50 (≈ 24.8 µg/mL)
CCCc1ccc2[nH]c(-c3ccc(OC)cc3)c(C3=C(Br)C(=O)NC3=O)c2c1	inactive	3.45	inactive	5.7	1.8 (≈ 0.791 µg/mL)	6.3	0.45 (≈ 0.198 µg/mL)
CCc1ccc2[nH]c(-c3ccccc3)c(C3=C(Br)C(=O)NC3=O)c2c1	inactive	3.15	inactive	5.4	4 (≈ 1.58 µg/mL)	6.9	0.13 (≈ 0.0514 µg/mL)
CCCCCCOc1ccc2[nH]c(-c3cccc(OC)c3)c(C3=C(Br)C(=O)NC3=O)c2c1	inactive	3.92	inactive	5.2	6.31 (≈ 3.14 µg/mL)	4.9	12.6 (≈ 6.27 µg/mL)
COc1ccc2[nH]c(-c3ccccc3)c(C3=C(Br)C(=O)NC3=O)c2c1	inactive	2.48	inactive	4.5	31.5 (≈ 12.5 µg/mL)	6	1 (≈ 0.397 µg/mL)
CCCc1ccc2[nH]c(-c3ccccc3)c(C3=C(Br)C(=O)NC3=O)c2c1	inactive	3.43	inactive	5.4	3.8 (≈ 1.56 µg/mL)	6.3	0.5 (≈ 0.205 µg/mL)
CCCCOc1ccc2[nH]c(-c3cccc(OC)c3)c(C3=C(Br)C(=O)NC3=O)c2c1	inactive	3.46	inactive	5.2	6.31 (≈ 2.96 µg/mL)	5.5	3.3 (≈ 1.55 µg/mL)
O=C(CCCc1[nH]c2ccccc2c1C1=C(Br)C(=O)NC1=O)Nc1ccccc1	inactive	2.56	inactive	4.3	55 (≈ 24.9 µg/mL)	5.8	1.7 (≈ 0.769 µg/mL)
Cc1cccc(NC(=O)CCCc2[nH]c3ccccc3c2C2=C(Br)C(=O)NC2=O)c1	inactive	2.56	inactive	4.6	27 (≈ 12.6 µg/mL)	6.1	0.79 (≈ 0.368 µg/mL)
O=C(CCCCCCc1[nH]c2ccccc2c1C1=C(Br)C(=O)NC1=O)Nc1ccccc1	inactive	2.85	inactive	4.9	12.6 (≈ 6.23 µg/mL)	7	0.1 (≈ 0.0494 µg/mL)
CCOc1ccc2[nH]c(-c3ccc(OC)cc3)c(C3=C(Br)C(=O)NC3=O)c2c1	inactive	2.77	inactive	4.8	14.1 (≈ 6.22 µg/mL)	5.7	2 (≈ 0.883 µg/mL)
O=C(CCCCc1[nH]c2ccccc2c1C1=C(Br)C(=O)NC1=O)Nc1ccccc1	inactive	2.56	inactive	4.6	26 (≈ 12.1 µg/mL)	5.8	1.7 (≈ 0.793 µg/mL)
